PubChem BioAssay (NCI)
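Cultured in 96-well plates, cells were exposed to test compound for 48 hours across five concentrations. GI50 = concentration required for 50% inhibition of growth. The concentration for full growth arrest is given as TGI.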

Assays:
Assay in all cases: NCI anticancer screen, dose series, 48 h; in the data active = GI50 below about 0.43 µM; inactive = the rest
[1] = tested on: HL-60(TB) leukemia
[2] = tested on: RXF-631 renal
[3] = tested on: LXFL 529 NSCLC
[4] = tested on: HCT-15 colon
[5] = tested on: OVCAR-5 ovarian
[6] = tested on: HCC-2998 colon
[7] = tested on: KM20L2 colon
[8] = tested on: NCI-H460 lung
[9] = tested on: SF-295 CNS
[10] = tested on: NCI-H226 lung
[11] = tested on: COLO 205 colon
[12] = tested on: RPMI-8226 leukemia
[13] = tested on: SK-MEL-2 melanoma
[14] = tested on: SNB-78 CNS
[15] = tested on: OVCAR-8 ovarian
[16] = tested on: 786-0 renal
[17] = tested on: SR leukemia
[18] = tested on: SN12C renal
[19] = tested on: CCRF-CEM leukemia
[20] = tested on: UACC-257 melanoma
[21] = tested on: A498 renal
[22] = tested on: UO-31 renal
[23] = tested on: HOP-92 NSCLC
[24] = tested on: LOX IMVI melanoma
[25] = tested on: HT29 colon
[26] = tested on: NCI-H23 lung
[27] = tested on: SK-MEL-28 melanoma
[28] = tested on: TK-10 renal
[29] = tested on: NCI-H522 lung
[30] = tested on: SNB-19 CNS
[31] = tested on: K-562 leukemia
[32] = tested on: KM12 colon
[33] = tested on: HCT-116 colon
[34] = tested on: MOLT-4 leukemia
[35] = tested on: DMS 273 small cell lung
[36] = tested on: XF 498 CNS
[37] = tested on: DMS 114 small cell lung
[38] = tested on: MALME-3M melanoma
[39] = tested on: SF-539 CNS
[40] = tested on: SW-620 colon
[41] = tested on: A549 NSCLC
[42] = tested on: M19-MEL melanoma
[43] = tested on: CAKI-1 renal
[44] = tested on: U251 CNS
[45] = tested on: DLD-1 colon
[46] = tested on: UACC-62 melanoma
[47] = tested on: ACHN renal
[48] = tested on: IGROV1 ovarian
[49] = tested on: OVCAR-4 ovarian
[50] = tested on: HOP-18 NSCLC
[51] = tested on: SNB-75 CNS
[52] = tested on: SK-OV-3 ovarian
[53] = tested on: HOP-62 NSCLC
[54] = tested on: M14 melanoma
[55] = tested on: RXF 393 renal
[56] = tested on: SK-MEL-5 melanoma
[57] = tested on: SF-268 CNS
[58] = tested on: OVCAR-3 ovarian
[59] = tested on: EKVX NSCLC

CC(C)(C)NC(=O)C12C3C4C1C1C2C3C41I (stereo not drawn)
> 100 µM: TGI [1] | TGI [2] | TGI [3] | TGI [4] | TGI [5] | TGI [6] | TGI [7] | TGI [8] | TGI [9] | TGI [10] | TGI [11] | TGI [12] | TGI [13] | TGI [14] | TGI [15] | TGI [16] | TGI [17] | TGI [18] | TGI [19] | TGI [20] | TGI [21] | TGI [22] | TGI [23] | TGI [24] | TGI [25] | TGI [26] | TGI [27] | TGI [28] | TGI [29] | TGI [30] | TGI [31] | TGI [32] | TGI [33] | TGI [34] | TGI [35] | TGI [36] | TGI [37] | TGI [38] | TGI [39] | TGI [40] | TGI [41] | TGI [42] | TGI [43] | TGI [44]

Nc1ccc(Cl)cc1.Nc1ccc(Cl)cc1.Nc1ccc(Cl)cc1.O=C([O-])C(=O)[O-].O=C([O-])C(=O)[O-].[H+].[Ru+5]
> 87.8 µM: TGI [1]
> 26.8 µM: TGI [22]
inactive: GI50 [45] > 43.5 µM | GI50 [48] > 100 µM | GI50 [6] 0.439 µM | GI50 [7] > 100 µM | GI50 [8] 1.05 µM | GI50 [49] > 100 µM | GI50 [10] 99.4 µM | GI50 [50] > 100 µM | GI50 [51] > 78.6 µM | GI50 [14] > 81.9 µM | GI50 [16] 1.44 µM | GI50 [18] > 24.5 µM | GI50 [21] > 82.1 µM | GI50 [22] 0.927 µM | GI50 [23] > 100 µM | GI50 [24] > 100 µM | GI50 [52] > 100 µM | GI50 [26] > 19.8 µM | GI50 [28] 3.56 µM | GI50 [53] 0.691 µM | GI50 [30] 31.4 µM | GI50 [54] > 100 µM | GI50 [34] 1.2 µM | GI50 [36] > 87.2 µM | GI50 [55] > 100 µM | GI50 [57] > 100 µM | GI50 [58] 1.1 µM | GI50 [59] 8.15 µM | GI50 [44] 0.938 µM
21.9 µM: TGI [32]
2.15 µM: TGI [42]
0.169 µM: TGI [11]
> 100 µM: TGI [45] | TGI [2] | TGI [3] | TGI [4] | TGI [48] | TGI [7] | TGI [8] | TGI [49] | TGI [10] | TGI [50] | TGI [12] | TGI [51] | TGI [14] | TGI [15] | TGI [16] | TGI [17] | TGI [18] | TGI [20] | TGI [21] | TGI [23] | TGI [24] | TGI [52] | TGI [25] | TGI [26] | TGI [27] | TGI [28] | TGI [29] | TGI [30] | TGI [31] | TGI [54] | TGI [33] | TGI [34] | TGI [35] | TGI [36] | TGI [55] | TGI [56] | TGI [57] | TGI [38] | TGI [39] | TGI [40] | TGI [41] | TGI [58] | TGI [59] | TGI [43] | TGI [44]
> 68 µM: TGI [19]
> 25.4 µM: TGI [47]
active: GI50 [1] 0.104 µM | GI50 [3] < 0.0272 µM | GI50 [46] < 0.0174 µM | GI50 [47] 0.0696 µM | GI50 [9] 0.127 µM | GI50 [11] 0.0362 µM | GI50 [12] 0.147 µM | GI50 [13] 0.219 µM | GI50 [17] 0.023 µM | GI50 [19] 0.176 µM | GI50 [31] < 0.0169 µM | GI50 [32] 0.124 µM | GI50 [35] 0.087 µM | GI50 [37] 0.23 µM | GI50 [39] 0.352 µM | GI50 [40] 0.187 µM | GI50 [41] 0.351 µM | GI50 [42] 0.0537 µM
